Laboratory results taken from ChEMBL document CHEMBL1201862, “PubChem BioAssay data set” (2004).
Values belong to the compound of their own block, whether it stands above or below them. Active and inactive are the calls of the source.

Tests used:
Cytochrome P450 2C19 = Cytochrome P450 2C19 (Homo sapiens, UniProt P33261); experiment: Cytochrome panel assay with activity outcomes. Panel member name: p450-cyp2c19 Compounds with AC50 equal or less than 10 uM are considered active; type: functional; conditions: read-out: AC50
Sequence of Cytochrome P450 2C19 (P33261 whole entry): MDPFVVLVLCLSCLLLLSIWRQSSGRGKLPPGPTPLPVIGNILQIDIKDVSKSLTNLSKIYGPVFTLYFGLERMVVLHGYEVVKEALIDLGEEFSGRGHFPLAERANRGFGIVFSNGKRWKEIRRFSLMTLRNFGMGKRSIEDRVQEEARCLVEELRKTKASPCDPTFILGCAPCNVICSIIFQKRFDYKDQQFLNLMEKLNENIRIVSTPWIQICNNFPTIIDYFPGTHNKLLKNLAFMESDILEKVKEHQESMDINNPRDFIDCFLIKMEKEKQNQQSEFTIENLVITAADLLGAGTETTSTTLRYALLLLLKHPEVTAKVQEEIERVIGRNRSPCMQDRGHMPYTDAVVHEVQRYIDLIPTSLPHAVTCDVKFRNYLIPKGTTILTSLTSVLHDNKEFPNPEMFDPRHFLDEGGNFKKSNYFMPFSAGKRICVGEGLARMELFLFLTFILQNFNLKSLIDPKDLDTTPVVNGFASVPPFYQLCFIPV

Cytochrome P450 3A4 = Cytochrome P450 3A4 (Homo sapiens, UniProt P08684);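 also: CYP3A4 tested as one member of a cytochrome P450 panel screen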
Sequence of Cytochrome P450 3A4 (P08684 whole entry): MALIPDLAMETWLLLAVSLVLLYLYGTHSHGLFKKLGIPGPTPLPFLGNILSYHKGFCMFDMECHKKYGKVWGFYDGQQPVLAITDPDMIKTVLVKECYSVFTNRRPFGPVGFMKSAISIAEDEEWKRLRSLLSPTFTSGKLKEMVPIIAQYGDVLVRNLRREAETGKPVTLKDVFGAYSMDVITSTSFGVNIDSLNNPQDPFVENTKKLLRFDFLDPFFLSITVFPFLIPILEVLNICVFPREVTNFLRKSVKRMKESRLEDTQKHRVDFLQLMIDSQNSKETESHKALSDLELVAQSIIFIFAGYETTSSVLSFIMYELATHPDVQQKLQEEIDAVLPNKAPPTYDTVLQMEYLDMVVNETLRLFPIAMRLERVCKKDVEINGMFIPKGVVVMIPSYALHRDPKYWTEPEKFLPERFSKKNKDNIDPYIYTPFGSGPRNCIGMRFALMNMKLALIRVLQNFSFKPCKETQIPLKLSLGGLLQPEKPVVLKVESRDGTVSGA

Cytochrome P450 2D6 = Cytochrome P450 2D6 (Homo sapiens, UniProt P10635);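 also: CYP2D6 member of a cytochrome P450 panel assay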
Sequence of Cytochrome P450 2D6 (P10635 whole entry): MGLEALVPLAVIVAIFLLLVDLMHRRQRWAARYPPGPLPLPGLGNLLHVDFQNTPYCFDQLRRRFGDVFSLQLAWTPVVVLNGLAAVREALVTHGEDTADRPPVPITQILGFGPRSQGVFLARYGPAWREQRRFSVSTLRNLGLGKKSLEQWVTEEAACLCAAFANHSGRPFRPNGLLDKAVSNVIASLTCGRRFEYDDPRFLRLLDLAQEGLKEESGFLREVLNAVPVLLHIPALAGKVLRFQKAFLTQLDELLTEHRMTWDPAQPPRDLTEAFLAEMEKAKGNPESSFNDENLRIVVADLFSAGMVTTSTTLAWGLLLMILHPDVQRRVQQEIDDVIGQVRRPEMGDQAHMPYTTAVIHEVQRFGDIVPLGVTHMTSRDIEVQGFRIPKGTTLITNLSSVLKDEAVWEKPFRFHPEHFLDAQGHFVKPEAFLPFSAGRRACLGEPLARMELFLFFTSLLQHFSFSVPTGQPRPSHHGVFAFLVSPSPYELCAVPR

Cytochrome P450 2C9 = Cytochrome P450 2C9 (Homo sapiens, UniProt P11712)
Sequence of Cytochrome P450 2C9 (P11712 whole entry): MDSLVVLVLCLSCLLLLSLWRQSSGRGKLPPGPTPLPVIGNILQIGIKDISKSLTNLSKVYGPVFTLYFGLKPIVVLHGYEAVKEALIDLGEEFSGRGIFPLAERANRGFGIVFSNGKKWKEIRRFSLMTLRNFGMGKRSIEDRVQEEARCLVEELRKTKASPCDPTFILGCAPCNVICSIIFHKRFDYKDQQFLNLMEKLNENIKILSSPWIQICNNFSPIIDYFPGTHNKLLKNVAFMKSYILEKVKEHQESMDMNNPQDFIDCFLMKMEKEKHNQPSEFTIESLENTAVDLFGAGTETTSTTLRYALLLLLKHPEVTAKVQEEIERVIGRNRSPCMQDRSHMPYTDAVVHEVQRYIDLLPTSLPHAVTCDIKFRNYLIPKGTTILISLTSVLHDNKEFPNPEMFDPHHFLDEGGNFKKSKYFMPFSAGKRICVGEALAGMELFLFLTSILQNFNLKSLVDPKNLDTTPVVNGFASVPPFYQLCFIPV

Cytochrome P450 1A2 = target: T1, Cytochrome P450 1A2 (Homo sapiens, UniProt P05177);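 also: PubChem cytochrome P450 panel assay, CYP1A2 panel member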
T1 sequence (P05177 whole entry): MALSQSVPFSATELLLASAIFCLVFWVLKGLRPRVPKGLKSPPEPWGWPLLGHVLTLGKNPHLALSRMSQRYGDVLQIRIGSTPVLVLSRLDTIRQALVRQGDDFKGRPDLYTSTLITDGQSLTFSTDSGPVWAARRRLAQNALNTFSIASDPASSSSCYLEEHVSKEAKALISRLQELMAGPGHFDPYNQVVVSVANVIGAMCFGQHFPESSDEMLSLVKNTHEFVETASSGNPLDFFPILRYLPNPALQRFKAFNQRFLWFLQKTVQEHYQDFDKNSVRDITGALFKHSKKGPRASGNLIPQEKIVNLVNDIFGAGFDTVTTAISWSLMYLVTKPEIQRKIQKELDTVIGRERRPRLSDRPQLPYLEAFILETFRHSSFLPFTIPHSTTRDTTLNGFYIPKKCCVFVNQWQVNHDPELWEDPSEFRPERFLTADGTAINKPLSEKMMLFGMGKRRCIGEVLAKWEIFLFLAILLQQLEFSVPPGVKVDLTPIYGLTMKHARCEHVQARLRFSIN

[1] = target: T2, Alkaline phosphatase, tissue-nonspecific isozyme (Homo sapiens, UniProt P05186); experiment: potency against alkaline phosphatase TNAP – biochemical, luminescent, dose response, SAR follow-up (AID 1056)
T2 sequence (P05186 whole entry): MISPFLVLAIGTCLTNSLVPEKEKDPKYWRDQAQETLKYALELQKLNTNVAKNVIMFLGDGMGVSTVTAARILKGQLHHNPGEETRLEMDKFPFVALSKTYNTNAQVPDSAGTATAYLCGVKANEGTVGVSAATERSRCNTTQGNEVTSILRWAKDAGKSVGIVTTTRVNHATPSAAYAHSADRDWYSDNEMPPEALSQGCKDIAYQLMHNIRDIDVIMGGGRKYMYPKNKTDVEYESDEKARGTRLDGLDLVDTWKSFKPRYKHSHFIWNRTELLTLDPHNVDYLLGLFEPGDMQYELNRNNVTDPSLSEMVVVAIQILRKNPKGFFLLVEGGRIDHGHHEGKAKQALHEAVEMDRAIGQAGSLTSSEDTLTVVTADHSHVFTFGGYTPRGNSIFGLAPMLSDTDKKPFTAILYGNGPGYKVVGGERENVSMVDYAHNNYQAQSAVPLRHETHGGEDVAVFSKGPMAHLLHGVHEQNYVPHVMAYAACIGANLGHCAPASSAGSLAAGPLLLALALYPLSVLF

[2] = target: Glyceraldehyde-3-phosphate dehydrogenase (Homo sapiens, UniProt P04406)
Sequence of Glyceraldehyde-3-phosphate dehydrogenase (P04406 whole entry, the tested form may be a part): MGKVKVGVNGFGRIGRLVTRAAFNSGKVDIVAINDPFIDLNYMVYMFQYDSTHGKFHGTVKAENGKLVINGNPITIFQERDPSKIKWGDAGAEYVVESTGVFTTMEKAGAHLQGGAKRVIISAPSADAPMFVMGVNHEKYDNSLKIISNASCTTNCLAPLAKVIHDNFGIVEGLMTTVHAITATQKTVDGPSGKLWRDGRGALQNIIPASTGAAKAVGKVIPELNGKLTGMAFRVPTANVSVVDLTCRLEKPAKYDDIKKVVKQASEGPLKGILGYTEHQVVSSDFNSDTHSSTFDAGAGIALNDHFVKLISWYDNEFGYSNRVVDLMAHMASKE

[3] = target: Disintegrin and metalloproteinase domain-containing protein 17 (Homo sapiens, UniProt P78536); experiment: exosite inhibitors of ADAM17, dose response, biochemical (AID 743260)
Sequence of Disintegrin and metalloproteinase domain-containing protein 17 (P78536 whole entry, the tested form may be a part): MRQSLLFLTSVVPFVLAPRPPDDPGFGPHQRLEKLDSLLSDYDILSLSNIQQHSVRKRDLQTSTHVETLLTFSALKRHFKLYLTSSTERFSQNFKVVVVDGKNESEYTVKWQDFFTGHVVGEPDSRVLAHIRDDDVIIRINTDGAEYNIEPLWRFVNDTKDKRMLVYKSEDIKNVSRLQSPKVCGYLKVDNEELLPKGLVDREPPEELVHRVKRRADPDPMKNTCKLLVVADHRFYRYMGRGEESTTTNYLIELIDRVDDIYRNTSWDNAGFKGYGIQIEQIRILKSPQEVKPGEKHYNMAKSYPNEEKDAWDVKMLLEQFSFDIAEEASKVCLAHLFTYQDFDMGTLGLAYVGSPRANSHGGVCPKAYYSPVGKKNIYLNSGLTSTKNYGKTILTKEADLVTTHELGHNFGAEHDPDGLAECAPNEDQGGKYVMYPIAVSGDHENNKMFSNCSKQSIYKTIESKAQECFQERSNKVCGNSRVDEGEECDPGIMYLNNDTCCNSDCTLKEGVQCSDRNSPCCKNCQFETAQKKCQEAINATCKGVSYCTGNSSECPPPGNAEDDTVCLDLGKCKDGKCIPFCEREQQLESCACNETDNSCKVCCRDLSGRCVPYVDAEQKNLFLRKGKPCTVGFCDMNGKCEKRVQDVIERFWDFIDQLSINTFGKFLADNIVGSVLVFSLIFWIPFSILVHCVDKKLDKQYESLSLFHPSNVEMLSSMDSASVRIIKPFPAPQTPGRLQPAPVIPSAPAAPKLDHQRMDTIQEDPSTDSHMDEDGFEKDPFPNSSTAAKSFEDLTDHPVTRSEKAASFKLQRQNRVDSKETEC

[4] = inhibition of ADAM10 peptide cleavage – biochemical, FRET peptide substrate, recombinant human ADAM10, selectivity assay for ADAM17 exosite inhibitor project, dose response (AID 743259);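 also: ADAM10 enzyme cleaving a FRET peptide substrate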
Streptococcus = experiment: GAS UMAA2166 growth inhibition – luminescence, BacTiterGlo, counter-screen for streptokinase expression inhibitor project, dose response (AID 1915); type: functional, organism-based;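 also: potency for reduction of bacterial viability or growth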
[5] = viability loss in THP-1 monocytes – THP-1 cells, cytotoxicity control for Vif-APOBEC3G degradation inhibitor project, dose response (AID 1117359); type: functional; conditions: THP-1
[6] = tested on: Streptococcus sp. 'group A'; experiment: Streptococcus pyogenes SK(-)GAS viability under kanamycin – luminescence, BacTiterGlo, confirmation, counter-screen for streptokinase expression inhibitor project, dose response (AID 1900); type: functional, organism-based
[7] = target: T3, Heat shock factor protein 1 (Mus musculus, UniProt P38532); experiment: decrease of HSF1-responsive luciferase luminescence – cell-based, NIH3T3, dose retest, confirmation (AID 2382); type: functional;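 also: NIH3T3 fibroblasts with HSF1-driven luciferase reporter stressed by proteasome inhibitor MG132; luminescence from HSF1-driven luciferase expression after 8 hours of MG132 stress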
T3 sequence (P38532 whole entry): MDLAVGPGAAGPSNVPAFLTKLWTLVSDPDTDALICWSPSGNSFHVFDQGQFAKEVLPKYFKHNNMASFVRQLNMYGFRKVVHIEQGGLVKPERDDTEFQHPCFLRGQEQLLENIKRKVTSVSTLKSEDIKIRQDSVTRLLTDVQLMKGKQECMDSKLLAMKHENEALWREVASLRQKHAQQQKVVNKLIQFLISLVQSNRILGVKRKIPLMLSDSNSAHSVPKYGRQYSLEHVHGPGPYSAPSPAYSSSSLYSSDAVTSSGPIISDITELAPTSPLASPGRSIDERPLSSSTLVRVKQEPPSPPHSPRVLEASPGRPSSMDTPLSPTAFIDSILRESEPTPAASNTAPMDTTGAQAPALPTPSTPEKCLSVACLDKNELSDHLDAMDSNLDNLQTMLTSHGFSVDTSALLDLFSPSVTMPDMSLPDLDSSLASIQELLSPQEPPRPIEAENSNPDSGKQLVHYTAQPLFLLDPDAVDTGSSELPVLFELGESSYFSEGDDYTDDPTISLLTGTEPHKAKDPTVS

[8] = general mammalian cell viability loss – inhibitor set, cherry-pick, set 2, cytotoxicity control for miR-122 modulator project, dose response (AID 720697); type: functional, cell-based
Protein skinhead-1 = target: T4, Protein skinhead-1 (Caenorhabditis elegans, UniProt P34707); type: functional
T4 sequence (P34707 whole entry): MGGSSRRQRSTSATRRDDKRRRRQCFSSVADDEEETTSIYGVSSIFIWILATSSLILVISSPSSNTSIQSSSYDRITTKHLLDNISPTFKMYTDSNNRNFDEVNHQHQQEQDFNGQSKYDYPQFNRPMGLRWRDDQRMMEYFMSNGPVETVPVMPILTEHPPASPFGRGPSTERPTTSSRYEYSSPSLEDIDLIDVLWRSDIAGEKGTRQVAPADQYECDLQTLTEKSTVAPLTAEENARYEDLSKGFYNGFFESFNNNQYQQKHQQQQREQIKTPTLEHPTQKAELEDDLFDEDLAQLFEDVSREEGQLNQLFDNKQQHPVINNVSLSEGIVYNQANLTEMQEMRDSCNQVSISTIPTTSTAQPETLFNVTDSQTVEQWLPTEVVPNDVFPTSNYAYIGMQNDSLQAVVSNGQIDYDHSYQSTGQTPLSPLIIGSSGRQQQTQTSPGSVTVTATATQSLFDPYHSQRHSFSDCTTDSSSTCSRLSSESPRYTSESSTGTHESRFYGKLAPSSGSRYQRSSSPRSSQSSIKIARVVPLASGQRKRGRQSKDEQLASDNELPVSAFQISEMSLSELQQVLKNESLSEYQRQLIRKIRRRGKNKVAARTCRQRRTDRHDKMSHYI

[9] = target: T5, Voltage-gated N-type calcium channel alpha-1B subunit/Amyloid beta A4 precursor protein-binding family A member 1 (Homo sapiens, UniProt Q00975+Q02410); type: protein assay
[10] = target: T5, Voltage-gated N-type calcium channel alpha-1B subunit/Amyloid beta A4 precursor protein-binding family A member 1; type: protein assay; remark: listed apart in the source
P388/ADR = experiment: cells; type: functional; conditions: Mus musculus
SN12K1 = experiment: cells; type: functional; conditions: Homo sapiens
P388 = experiment: cells; type: functional; conditions: Mus musculus

SMILES: C[C@]12Cc3cn4c(nc3C=C1CC[C@H]1[C@@H]2CC[C@@]2(C)[C@H]1CC[C@@]2(O)C#N)nc1ccccc14
AC50 (Cytochrome P450 2C19): 7.94 µM (inconclusive)
AC50 (Cytochrome P450 3A4): inconclusive
AC50 (Cytochrome P450 2D6): 25.1 µM (inconclusive)
AC50 (Cytochrome P450 2C9): 10 µM (inconclusive)
AC50 (Cytochrome P450 1A2): 15.8 µM (inconclusive)

SMILES: CCCN=C1C(=O)C2=C(C(O)=C1C)N1CC3NC3[C@@]1(OC)C2COC(N)=O (some centres undefined)
EC50 (Streptococcus): 0.153 µM (active)
CC50 [5]: 1.52 µM (active)
EC50 [6]: < 0.06 µM (active)

SMILES: CCCC[C@@H]1CN=C(S)N1CCc1cccc2ccccc12
CC50 [5]: > 40 µM (active)

SMILES: N#Cc1c(N)nc2c(c1-c1cccs1)CCCC2
AC50 [8]: 6.16 µM (active)

SMILES: O=C(Cn1c(=O)c2ccccc2n(CC(=O)N2CCCCC2)c1=O)N1CCCCC1
AC50 [8]: 6.5 µM (active)

SMILES: COc1nc(SC)nc2c1cnn2C1OC(C(O)CO)C(OC)C1O (centres undefined)
GI50 (P388/ADR): 41.3 µM (inactive)
GI50 (SN12K1): > 54.3 µM (inactive)
GI50 (P388): > 39.4 µM (inactive)

SMILES: O=C(NN1C(=O)CS(=O)(=O)C1c1ccc(Cl)c(Cl)c1)c1ccncc1 (centres undefined)
GI50 (P388/ADR): 36.6 µM (inactive)
GI50 (SN12K1): > 100 µM (inactive)
GI50 (P388): 25.6 µM (inactive)

SMILES: C[N+](C)([O-])CCOc1cc2c(c3ccccc13)-c1ccccc1C2=O
GI50 (P388/ADR): 8.79 µM (inactive)
GI50 (SN12K1): 4.37 µM (inactive)
GI50 (P388): 6.19 µM (inactive)

SMILES: CN(C)CCNC(=O)c1cccc2ccc(-c3ccc(F)cc3)nc12
GI50 (P388/ADR): 1.75 µM (inactive)
GI50 (SN12K1): 2.96 µM (inactive)
GI50 (P388): 0.61 µM (active)

SMILES: CCC(/C=C/C1OC(=O)C=CC1C)=C\C(C)C/C=C/C(C)=C/C(C)C(=O)C(C)C(O)C(C)C/C(C)=C/C(=O)O (centres undefined)
GI50 (SN12K1): 1.56 µM (inactive)
GI50 (P388): 0.914 µM (active)

SMILES: O=[N+]([O-])c1ccc2[nH]c3c(-c4ccccc4)nccc3c2c1
GI50 (P388/ADR): 12.9 µM (inactive)
GI50 (SN12K1): 20.5 µM (inactive)
GI50 (P388): 10.9 µM (inactive)

SMILES: CN(C)CCCNC(=O)C[C@H]1CC[C@H]2[C@H](COc3ccc(NC(=O)NC4CCCC4)cc3C(=O)N2C)O1
AC50 [8]: 0.509 µM (active)

SMILES: CCNC(=O)C[C@H]1CC[C@H]2[C@H](COc3ccc(NS(C)(=O)=O)cc3C(=O)N2C)O1
AC50 [8]: 3.57 µM (active)

Second part, led by results:

IC50 [1]: 10.9 µM (active)
IC50 [2]: > 100 µM (not active)
SMILES: O=S(=O)(Nc1cccnc1)c1ccc(Br)cc1OC(F)(F)F

IC50 [3]: > 69.5 µM (inactive)
SMILES: O=C(Nc1cc(Cl)ccc1O)C1CC(c2c(F)cccc2Cl)=NO1 (centres undefined)
IC50 [4]: > 69.5 µM (inactive)

AC50 (Cytochrome P450 3A4): inconclusive
AC50 (Cytochrome P450 1A2): 15.8 µM (inconclusive)
SMILES: Cc1ccccc1OCC(=O)Nc1ccc(N2CCN(C(=O)C(C)C)CC2)c(Cl)c1

IC50 [3]: > 69.5 µM (inactive)
SMILES: CN(c1ccc(OCc2ccc([N+](=O)[O-])cc2)cc1)S(=O)(=O)c1ccccc1
IC50 [4]: > 69.5 µM (inactive)

EC50 [7]: > 195 µM (not active)
SMILES: NNC(=O)c1ccc(N2CCc3ccccc32)c([N+](=O)[O-])c1
CC50 [5]: > 40 µM (active)

AC50 (Cytochrome P450 3A4): inconclusive
AC50 (Cytochrome P450 2D6): 17.8 µM (inconclusive)
SMILES: c1ccc(-c2noc(CSc3nnnn3C3CCCCC3)n2)cc1

AC50 (Cytochrome P450 3A4): inconclusive
SMILES: CCN(CC)S(=O)(=O)c1ccc(C(=O)NC2=C(C(=O)OC)SCC2)cc1

IC50 (Protein skinhead-1): 17.4 µM (active)
AC50 (Cytochrome P450 3A4): inconclusive
SMILES: c1ccc(Oc2cc(-c3ccccc3)ncn2)cc1

IC50 [1]: > 10 µM (inactive)
IC50 [2]: > 10 µM (inconclusive)
SMILES: O=C1C2CCCCC2C(=O)N1c1nccs1 (centres undefined)

IC50 [9]: > 50 µM (inactive)
IC50 [10]: > 56.8 µM (not active)
SMILES: CC(=O)NC1=NC(=O)/C(=C/c2cn(C(C)=O)nc2-c2ccccc2)S1

IC50 [3]: > 69.5 µM (inactive)
SMILES: COc1ccc(C2=NS(=O)(=O)N(C)C(C(=O)Nc3ccc(C)cc3)=C2)cc1
IC50 [4]: 56.7 µM (inactive)

IC50 [1]: 1.7 µM (active)
IC50 [2]: > 100 µM (not active)
SMILES: CCOc1cc(C)c(C)cc1S(=O)(=O)Nc1cccnc1

IC50 [3]: > 69.5 µM (inactive)
SMILES: COc1ccc(NC(=O)C2CCN(S(=O)(=O)c3c(C)noc3/C=C/N(C)C)CC2)cc1
IC50 [4]: 23.9 µM (inactive)

AC50 (Cytochrome P450 2C19): 15.8 µM (inconclusive)
AC50 (Cytochrome P450 3A4): inconclusive
AC50 (Cytochrome P450 2D6): 0.00316 µM (inconclusive)
AC50 (Cytochrome P450 2C9): 39.8 µM (inconclusive)
SMILES: Cc1cccc(C(=O)N2CCC(c3nc(-c4ccc(S(=O)(=O)N5CCOCC5)cc4)no3)CC2)c1
